Laboratory results reported in patent publication US20230125429A1 (priority 2017, published 2023).
pIC50: −log10 of the molar value. Values joined by “and” are separate entries in the source; they are usually repeats but may differ in a detail not shown here. Identical values can stand only once. “Also recorded” adds a separate entry of the source.

Key:
HepG2 cells = assay: Blocking the AC-cAMP-PKA pathway, growth of HepG2 cells; format: cell-based, human
[1] = Lethal dose and maximum tolerable dose in mice; format: in vivo
Description: Thus, a second preliminary experiment was carried out in tumor-bearing nude mice to determine whether an antitumor effect could be achieved within the non-toxic range. […] Thus, the 25 mg/kg once every other day regimen was selected for the preclinical experiment. The volumes of individual tumors were assessed by bioluminescent imaging.
Thus, we first determined the lethal dose and the maximum tolerable dose (MTD) of Triptonide for mice based on a once every other day regimen. […] It is noted that once every other day might not be the optimal scheme. Nonetheless, we decided to begin with this scheme and the 25% value of the MTD, i.e. 25 mg/kg.

GES-1 = assay: Growth inhibitory effect, one hour exposure (IncuCyte Zoom); format: cell-based, human; settings: GES-1, immortalized gastric epithelium
wild-type keratinocytes = assay: Growth of wild-type primary keratinocytes, continuous exposure; format: cell-based, mouse
Description: For the neonatal mouse keratinocyte culture, the dorsal skins of neonatal wild type or Par2 knockout mice were harvested from wild type or Par2 knockout mice, respectively. The skins were incubated overnight at 4° C. in a 0.25% solution of trypsin (Life Technologies, USA) in phosphate-buffered saline (PBS) without calcium and magnesium. The epidermis was then separated from the adjoining dermis, and the dispersed epidermal cells were collected in suspension Eagle’s minimal essential medium (SMEM) (Life Technologies, USA) supplemented with glutamine and 8% calcium free fetal calf serum (FCS) (Life Technologies, USA). The cells were plated onto individual wells of 48 well plates (Corning, USA), which were pre-coated with collagen (Life Technologies, USA), at a density of 70,000 cells/well. The cell cultures were kept for 12 hours at 34° C. in a humidified incubator containing 8% CO2. Low calcium (0.05 mM) S-MEM, containing 8% FCS was then added to initiate the culture. The culture medium was changed every 2 days.
(§1) For primary hepatocytes, the seeded cells were monitored for up to 48 hours either without any treatment (as a control) or with various types of treatments. For primary keratinocytes, cells in 48-well plates were monitored either without any treatment or with various types of treatment for up to 96 hours. For HepG2, cells 96-well plates were monitored either without any treatment or with various types of treatments for up to 48 hours. The IncuCyte Zoom was set to take a set of images at fixed locations (4 per well for 96-well plates and 16 per well for 48-well plates and 12-well plates) every three hours.
To address this question, we took a genetic approach.

[2] = tested on: Par2 knockout keratinocytes; assay: Growth of Par2 knockout primary keratinocytes, one hour treatment; format: cell-based, mouse; settings: one hour treatment
HOP-62 = assay: Growth inhibitory effect, one hour exposure (IncuCyte Zoom); format: cell-based, human; settings: HOP-62, Non-Small Cell Lung
Description: (§2) Cancer cell lines and immortalized human cell lines were cultured in 1640 tissue culture medium (Corning, USA) with 10% fetal bovine serum in a standard tissue culture condition of 37° C. and 5% CO2.
as §1
(§3) The one-hour exposure is intended to simulate the transient high concentrations within the liver as the results of either the first pass effects of some orally administered drugs, or of locally delivered drugs, anticipating that such a short term exposure is nevertheless sufficient to affect certain cell surface receptors without causing any significant off-target effects due to intracellular absorption. Such a strategy would also reduce false hits due to reversible cell cycle arrests.
(§4) To address this possibility, we investigated whether other cell lines, including other HCC cell lines, cell lines from other type of cancers, as well as non-cancer immortalized/transformed cell lines, were also sensitive to Triptonide. Specifically, a total of 51 human cancer cell lines, representing 10 types of human cancers (6 non-small cell lung cancer cell lines, 5 colon cancer cell lines, 5 central nerve system cancer cell lines, 8 Melanomas cell lines, 4 ovarian cancer cell lines, 4 renal cancer cell lines, 2 prostate cancer cell lines, 3 breast cancer cell lines, 7 hepatocellular carcinoma cell lines, and 4 gastric cancer cell lines) were analyzed.

T-47D = assay: as above; format: cell-based, human; settings: Breast
Description: as §2, §1, §3, §4

SNU-387 = assay: as above; format: cell-based, human; settings: SNU-387, Hepatocellular carcinoma
Description: as §2, §1, §3, §4

SK-OV-3 = assay: as above; format: cell-based, human; settings: SK-OV-3, Ovarian
Description: as §2, §1, §3, §4

UACC-257 = assay: as above; format: cell-based, human; settings: UACC-257, Melanoma
Description: as §2, §1, §3, §4

OVCAR-5 = assay: as above; format: cell-based, human; settings: OVCAR-5, Ovarian
Description: as §2, §1, §3, §4

ACHN = assay: as above; format: cell-based, human; settings: Renal
Description: as §2, §1, §3, §4

HT29 = assay: as above; format: cell-based, human; settings: HT29, Colon
Description: as §2, §1, §3, §4

Huh7 = assay: as above; format: cell-based, human; settings: Huh7, Hepatocelular carcinoma
Description: as §2, §1, §3, §4

NCI-H226 = assay: as above; format: cell-based, human; settings: NCI-H226, Non-Small Cell Lung
Description: as §2, §1, §3, §4

NCI-H23 = assay: as above; format: cell-based, human; settings: NCI-H23, Non-Small Cell Lung
Description: as §2, §1, §3, §4

UACC-62 = assay: as above; format: cell-based, human; settings: UACC-62, Melanoma
Description: as §2, §1, §3, §4

HepG2 = assay: as above; format: cell-based, human
Description: as §2, §1, §3, §4

LM9 = assay: as above; format: cell-based, human; settings: LM9, Hepatocellular carcinoma
Description: as §2, §1, §3, §4

U251 = assay: as above; format: cell-based, human; settings: U251, CNS
Description: as §2, §1, §3, §4

SK-MEL-28 = assay: as above; format: cell-based, human; settings: SK-MEL-28, Melanoma
Description: as §2, §1, §3, §4

LOX IMV1 = assay: as above; format: cell-based, human; settings: LOX IMV1, Melanoma
Description: as §2, §1, §3, §4

HS 578T = assay: as above; format: cell-based, human; settings: Breast
Description: as §2, §1, §3, §4

CC(C)[C@]12O[C@H]1[C@@H]1O[C@@]13[C@@]1(C)CCC4=C(COC4=O)[C@@H]1C[C@@H]1O[C@@]13C2=O [Triptonide]
effect on growth of HepG2 cells (HepG2 cells): significant growth inhibitory effect | mortality ([1]; 100 mg/kg three times a day, four-hour interval, within four days): all animals were dead | death ([1]; 200 mg/kg oral, once every other day, within four days): 100% | adverse effects ([1]; up to 100 mg/kg oral, once every other day): did not cause any significant adverse effects; also recorded: did not result in any significant adverse effects | pIC50 (GES-1): 4.78 | growth inhibitory effect, wild-type versus Par2 knockout (wild-type keratinocytes; continuous exposure): more potent growth inhibitory effect on the Par2 wild-type PMHs than their Par2 knockout counterparts | toxicity to Par2-expressing primary mouse keratinocytes (wild-type keratinocytes; long-term exposure, as low as 50 nM): quite toxic | effect on growth of Par2 knockout keratinocytes ([2]; 100 and 200 µM): growth inhibitory effects | pIC50 ([2]; Par2 knockout keratinocytes): 4.59 | effect on growth of Par2 knockout keratinocytes ([2]; concentrations up to 26 µM): did not cause significant growth inhibition | pIC50 (HOP-62): 5.03 | pIC50 (T-47D): 5.74 | pIC50 (SNU-387): 5.17 | pIC50 (SK-OV-3): 5.41 | pIC50 (UACC-257): 4.80 | pIC50 (OVCAR-5): 5.08 | pIC50 (ACHN): 4.82 | pIC50 (HT29): 5.77 | pIC50 (Huh7): 5.76 | pIC50 (NCI-H226): 4.95 | pIC50 (NCI-H23): 6.39 and 6.38 | pIC50 (UACC-62): 5.03 | effect on growth of HepG2 (HepG2; 4 µM or higher for one hour): significant growth inhibition | effect on cell density of HepG2 (HepG2; 16 µM and above, one hour): apparent reduction in cell density | pIC50 (HepG2; HepG2, Hepatocellular carcinoma, one hour exposure): 5.12 | pIC50 (LM9): 5.37 | pIC50 (U251): 4.36 | pIC50 (SK-MEL-28): 4.75 | pIC50 (LOX IMV1): 5.75 | pIC50 (HS 578T): 5.73
